Consider one compound from publication PMC6471062, “Suppression of the Ubiquitin Pathway by Small Molecule Binding to Ubiquitin Enhances Doxorubicin Sensitivity of the Cancer Cells” (Molecules, 2019).

Data set [1] deals with E2-25K. The data set is described as follows: In vitro K48 polyubiquitination reaction with E2-25K. Type of data set: biochemical. The note with it: purified E2-25K, increasing CR (50–500 µM), 500 µM ubiquitin, 37 °C. As for the experimental part:
(§1) Figure 5 CR inhibits K48- and K63- polyubiquitination in vitro. (a) Interacting surface of ubiquitin when complex with E2-25K and Ubc13 compared with the surface used for CR binding. (b,c) CR inhibits K48- (b) and K63-ubiquitinations (c). First, mono ubiquitin was mixed with UBA1, E2-25K or complex Mms2/Ubc13, and 0–500 µM CR in the presence or absence of ATP regeneration system. Then the mixture was incubated at 37 °C for […]. The reaction was stopped by adding 5X SDS loading buffer and the results were analyzed with 15% SDS-PAGE.
(§2) For in vitro ubiquitination assays, 500 µM of ubiquitin was used for each ubiquitination reaction as described previously, in the absence or presence of 50–500 µM of CR. The reactions were incubated at 37 °C for 4 h and 16 h for K63- and K48 polyubiquitination respectively. The reaction was terminated by adding 5X SDS sampling buffer and results were subjected to 15% SDS-PAGE followed by Coomassie Blue staining for analyses. […] The generation of GST-ubiquitin from GST-Ubiquitin-HA as the mobility shifts were analyzed on 12.5% SDS-PAGE visualized by Coomassie blue staining. Band intensities were quantified by ImageJ [55] and used to generate the IC50 curves (log inhibitor vs. normalized response with variable slope) by GraphPad Prism version 6.0 for Windows (GraphPad Software, San Diego, CA, USA, www.graphpad.com).

Data set [2] in a line: Cell membrane permeability (inferred from intracellular action). The settings on record: in contrast to CSB6B; inferred from intracellular effect on ubiquitination.
Data set [3] has as its system Ubc13. Put plainly: In vitro K63 polyubiquitination reaction with Ubc13. Type of data set: biochemical. The settings on record: purified Ubc13 (Mms2/Ubc13), increasing CR (50–500 µM), 500 µM ubiquitin, 37 °C. The procedure: as §1, §2
Data set [4] concerns the target UCHL1 (Homo sapiens). The data set is described as follows: Deubiquitination assay, cleavage of GST-Ubiquitin-HA by UCHL1 (SDS-PAGE band intensity). Format: biochemical. As for the experimental part:
For in vitro ubiquitination assays, 500 µM of ubiquitin was used for each ubiquitination reaction as described previously, in the absence or presence of 50–500 µM of CR. […] The generation of GST-ubiquitin from GST-Ubiquitin-HA as the mobility shifts were analyzed on 12.5% SDS-PAGE visualized by Coomassie blue staining. Band intensities were quantified by ImageJ [55] and used to generate the IC50 curves (log inhibitor vs. normalized response with variable slope) by GraphPad Prism version 6.0 for Windows (GraphPad Software, San Diego, CA, USA, www.graphpad.com).

Data set [5] relates to HCT116 cells. The data set is described as follows: Luminogenic caspase activity assay (Caspase Glo 3/7), HCT116. Format: cell-based. The settings on record: 10 µM CR or 5 µM NSC697923 with Dox. The procedure:
Figure 7 CR enhances Dox sensitivity of cancer cells. (a,b) Enhancement of Dox-induced apoptosis of cancer cells by CR treatment. Dox–induced apoptosis of H1299 (a) and HCT116 (b) was quantified by colorimetric cell viability after treating 10 µM CR for 12 h followed by 12h treatment of Dox (0.0–5.0 µM). […] Caspase activity was quantified by luminogenic caspase activity assay. […] All error bars represent the standard deviation from at least four independent experiments. Statistical significance was calculated by the Student’s t-test (** p < 0.01, *** p < 0.001).
Cell viability assays were performed as described previously. For the caspase assays, the media were removed, and cells were lysed in 200 µL lysis buffer containing 50 µL Caspase Glo 3/7 solution and incubated for 15 min. Results were observed by measuring the luminescence signal using KOMM-Nr (Berthold Technologies, Bad Wildbad, Germany) and normalized with the total protein concentration measured by the Bradford assay. […]
Figure S8. NSC697923 enhances Dox sensitivity of cancer cells. (a, b) Effect of NSC697923 to cancer cells’ viability in Dox treatment . Dox–induced cell death of H1299 ( a) and HCT116 ( b) was quantified by colorimetric cell viability assay after treating 5 µM NSC697923 for 12 h followed by 12h treatment of Dox (0.0 […]
NSC697923. Caspase activity was quantified by luminogenic caspase activity assay. […]

Chain of UCHL1 (Homo sapiens) (P09936 whole entry, other chains not shown): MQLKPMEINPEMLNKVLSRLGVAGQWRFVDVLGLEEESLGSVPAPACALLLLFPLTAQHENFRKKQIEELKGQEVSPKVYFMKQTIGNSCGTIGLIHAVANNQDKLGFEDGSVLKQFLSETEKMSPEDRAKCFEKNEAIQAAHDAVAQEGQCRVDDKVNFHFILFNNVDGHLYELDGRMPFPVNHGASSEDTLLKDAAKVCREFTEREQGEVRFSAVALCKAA

The IC50 is the concentration needed to halve the response being measured. Take `Nc1c(/N=N/c2ccc(-c3ccc(/N=N/c4cc(S(=O)(=O)O)c5ccccc5c4N)cc3)cc2)cc(S(=O)(=O)O)c2ccccc12` [CR, Congo red]: the “Inhibition of K48 polyubiquitination” value in data set [1] is “effectively inhibited by CR in a dose-dependent manner”. The Cell permeability entry in data set [2] was “better cell permeability”. The “Inhibition of K63 polyubiquitination” value in data set [3] is “effectively inhibited by CR in a dose-dependent manner”. In data set [4], this compound came in with an IC50 of 26.9 ± 2.99 µM. Also, the “Effect on caspase activity of Dox-treated HCT116 cells” value in data set [5] was “Enhanced caspase activity”.
